Experimental data as given in patent US11229635B2, “Method of treating fibrosis” (BCN Biosciences L.L.C., priority 2016, dated 2022).

Experiments:
[1] = system: radiation dermatitis (erythema, edema); test: Draize scoring of dermal radiation sites, dermal dosing 10 mg/mL Day 0 to 6; assay type: in vivo; conditions: Avg of Days 1-6 and 8
[2] = system: inflammatory peritoneal macrophages; test: Cytokine release by LPS-stimulated inflammatory peritoneal macrophages; assay type: cell-based; conditions: stimulation with LPS in vitro
From the text: Because of the focus on lung fibrosis, we examined the effects of irradiation on macrophages in terms of their ability to modulate fibroblast responses. […] In addition, BCN-512 blocks the ability of irradiated macrophages to stimulate fibroblast proliferation. The ability of BCN-512 to reprogram macrophages is likely highly relevant to its ability to mitigate radiation induced fibrosis and tissue damage

[3] = system: Lewis lung (LLC) tumors; test: Lewis lung (LLC) artificial metastasis model, lung tumor colonies; assay type: in vivo, C57Bl/6 and C3H mice
Procedure: One of the major concerns of the Food and Drug Administration for the application of radiation mitigators in RT is that if an agent can protect normal tissue from radiation damage, it may also protect tumor tissues. […] The syngeneic model of artificial metastasis used Lewis lung (LLC) tumors, and since LLC also grow in C3H mice, this could be employed as an allogeneic model. C57B1/6 and C3H mice were injected i.v. with 5×10^4 tumor cells. Subcutaneous drug injections were started on day +3 when the tumors were established in the lung in order to bias the experiment in favor of tumor growth promotion. The dose regimen was arbitrarily assigned to a dose of 20 mg/kg for 5 days. LTI was started on day 4, with 4 Gy doses administered daily for 3 days. This is higher than conventional 2 Gy to compensate for the more rapid growth of murine tumors, but is still well within the range used clinically in hypofractionated therapy.

[4] = system: lung organoids; test: Ex vivo 3D lung organoid culture after radiation; assay type: cell-based, mice; conditions: 6 Gy; 28 μM at 1-hour post-radiation exposure
Procedure: 512 induces lung organoid growth in ex vivo cultures: Ex vivo 3D organoid cultures are one of the best models for studying stem cell growth and proliferation because organoid growth depends primarily on the presence of stem cells. For these experiments, mice were euthanized by CO2 or ketamine-xylazine administration and the abdominal aorta was exposed and exsanguinated. The thoracic cavity was opened, and the lungs were exposed. Blood was flushed from the lung vasculature by perfusion with 10 mL of sterile cold PBS through the right ventricle. The trachea was cannulated with a 24-G cannula, and 1.2 mL of 10 U dispase (BD) was then injected into the lungs. The trachea and lungs were removed from the chest en-block and incubated for 20 minutes at room temperature (RT). The lung lobes were dissected from the trachea, heart, and rest of mediastinal structures and then finely minced and incubated for 10 more min with 2 mL of dispase. The suspension was passed through an 18-G needle 4-5 times to help open the lung compartments. If sticky DNA was detected, 10-30 μL of 4 mg/mL DNase I (Sigma) was added to the cell suspension and incubated at 37° C. for 5 min. The cells were filtered through a 100-μ cell strainer (BD Biosciences) to obtain single-cell suspensions (SCS). Red blood cells were lysed using RBC lysing buffer. […]

[5] = system: bone marrow hematopoietic stem cells (HSCs); test: Total body irradiation survival (hematopoietic suppression); assay type: in vivo, C3H/HeN mice
Procedure: FIG. 8A-C: (A) Kaplan Meier Plot of Male C3H/HeN mice 7.75Gy 30 Day TBI (n=30) 50 mg/kg BCN057. (B). Kaplan Meier Plot of Female C3H/HeN mice 7.75Gy 30 Day TBI (n=10) 25 mg/kg BCN057. (C) Cytokine Profile in Plasma Male C3H/HeN mice 7.75Gy TBI Day 8 receiving BCN057.
7.75 Gy radiation is used to ablate bone marrow hematopoietic stem cells (HSCs) in these strains of mice. […] Lethality from bone marrow suppression occurs in the 14-25 day region due to the life cycle of approximately 2 weeks for RBC and inability to replace them without HSCs
7.73 Gy radiation is used to ablate bone marrow HSCs in the C3H strain of mice.

[6] = Pharmacokinetic profile after sc injection; assay type: in vivo; conditions: mouse, plasma; C57BL/6 male mice, 10 mg/kg sc, low % deoxycholate formulation
Procedure: FIG. 6A: Pharmacokinetic profile for C57BL/6 male mice receiving a 10 mg/kg sc injection of 512 in a low % deoxycholate formulation.
Because the side effects of Cremophor are undesirable for an MCM candidate, alternative formulations are being tested for further development of 512 for the lung DEARE indication.

[7] = system: immature myeloid cells; test: Immature myeloid cells after WBI and WTLI; assay type: in vivo
From the text: 2. […] They co-express CD11b, Ly6G, and Ly6C, and are required for mitigation by BCN-512, at least after WBI.

[8] = system: canonical Wnt-β catenin signaling; test: TCF/LEF luciferase reporter assay in HEK293 cells; assay type: cell-based; conditions: 28 μM, 24 h, vs vehicle treated cells
Procedure: LiCl (10 mM) treatment was used as positive control for luciferase activity. Luciferase activity was determined after 24 h using a Dual-Luciferase® Reporter Assay System (Promega) as per manufacturer's protocol. HEK293 cells containing a FOPFlash construct were used as a negative control.

[9] = system: macrophages co-cultured with fibroblasts; test: Macrophage-fibroblast co-culture, CFSE proliferation; assay type: cell-based, mouse
From the text: Cell proliferation was used as a sensitive in vitro endpoint because it can also be used to detect cell death. Cells were labeled with the fluorescent dye CF SE, which becomes diluted as the cells proliferate over time. We performed a series of experiments using tumor cell lines to validate the assay and determine the effective ratios of macrophages to target cells (not shown) before performing experiments with normal early-pass murine embryo fibroblasts. To study the effects of BCN-512 and macrophages on fibroblast cell proliferation and death, irradiated (2 or 6 Gy) macrophages and fibroblasts were added at various ratios. Normal mouse fibroblasts were labelled with CF SE and added to the macrophages in 96-well plates. BCN-512 (10 μM) and/or LPS (1 μg/mL) or diluent were then added, and the plates cultured for 1, 2, or 3 days. The purpose of the LPS was to activate the macrophages. BCN-512 was added 1 hour after LPS, which was added immediately after irradiation

SMILES: O=[N+]([O-])c1ccc(S(=O)(=O)N2CCN(c3ccccc3)CC2)cc1 [BCN512, 1-[(4-nitrobenezene)sulfonyl]-4-phenyl piperazine]
- Average Draize score Edema [1]: 0
- Average Draize score Edema Site 2 [1]: 0
- Average Draize score Edema Site 3 [1]: 0.5714
- Average Draize score Edema Site 4 [1]: 0
- Average Draize score Edema Site 5 [1]: 0.8571
- Average Draize score Edema Site 6 [1]: 0
- Average Draize score Erythema Site 2 [1]: 0.4286
- Average Draize score Erythema Site 3 [1]: 1.429
- Average Draize score Erythema Site 4 [1]: 0.1429
- Average Draize score Erythema Site 5 [1]: 1.571
- Average Draize score Erythema Site 6 [1]: 0.8571
- amount of pro-inflammatory cytokines released [2]: decreases
- lung tumor colony size ([3]; both strains, vs control): smaller in size than control
- decrease of the number of lung tumor colonies ([3]; day 14, 20 mg/kg sc for 5 days, both C3H and C57 mouse strains, P<0.05): 20%
- lung organoid growth [4]: mitigated the radiation damage and induced lung organoid growth
- lethality from bone marrow suppression ([5]; 7.73 Gy TBI, C3H strain of mice): sufficient to prevent lethality from bone marrow suppression
- efficacy in total body irradiation experiments ([5]; Deoxycholate formulation, subcutaneously): good efficacy
- Cmax [6]: 132 ng/mL
- Tmax [6]: 2 h
- number of immature myeloid cells (CD11b, Ly6G, Ly6C) [7]: greatly increases
- luciferase activity [8]: significantly increased luciferase activity
- toxicity of LPS-treated macrophages to fibroblasts ([9]; 10 μM, LPS 1 μg/mL, ratios of 20:1 or 25:1): practically abolished the toxicity associated with LPS treatment
- increase of viable fibroblasts by irradiated macrophages ([9]; 6 Gy macrophage irradiation, 3 days): seemed to neutralize this function
